Experimental data published in patent US20240308960A1 (Sumitomo Pharma Co., Ltd., priority 2021, published 2024).

target: T1, Human orexin receptor type 2 (Homo sapiens, UniProt O43614); assay: Test Example 1: agonist activity for orexin receptor type 2 (aequorin luminescence, intracellular calcium mobilization); conditions: compound 10 μm; CHO cells transiently expressing human orexin receptor type 2 and apoaequorin; relative percentage of luminescence for the luminescence (100%) of Orexin A (100 μM)
T1 sequence (O43614 1-444): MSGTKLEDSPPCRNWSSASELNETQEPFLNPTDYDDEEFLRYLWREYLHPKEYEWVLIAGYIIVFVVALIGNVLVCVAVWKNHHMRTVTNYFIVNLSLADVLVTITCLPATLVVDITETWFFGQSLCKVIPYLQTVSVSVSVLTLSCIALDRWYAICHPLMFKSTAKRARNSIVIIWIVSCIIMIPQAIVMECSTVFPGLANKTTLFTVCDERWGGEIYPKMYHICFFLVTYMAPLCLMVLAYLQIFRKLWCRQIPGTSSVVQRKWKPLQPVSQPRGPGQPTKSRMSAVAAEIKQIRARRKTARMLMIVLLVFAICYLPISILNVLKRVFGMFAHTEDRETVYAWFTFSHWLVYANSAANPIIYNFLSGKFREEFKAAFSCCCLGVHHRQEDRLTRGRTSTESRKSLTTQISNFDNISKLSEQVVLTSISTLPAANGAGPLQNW
Protocol: Human orexin receptor type 2 and apoaequorin were transiently expressed in CHO cells, and the agonist activity was evaluated based on intracellular calcium mobilization with ligand stimulation. The CHO cells transiently-expressed human orexin receptor type 2 and apoaequorin were seeded on a 384-well plate by 2,000 cells/well, and then incubated for 16-22 hours. After the plate was returned to room temperature, Coelenterazine hcp (final concentration: 1 μM) was added to the plate, and the plate was allowed to stand at room temperature for 2 hours. And then, Orexin A or each test compound was added to the plate, and the luminescence of the cells was measured with FDSS7000 (Hamamatsu Photonics K. K.), wherein Orexin A and each test compound were dissolved in DMSO (final concentration: 0.1%), and diluted with a buffer (Hanks, 20 mM HEPES, 0.1% BSA). The agonist activity of each test compound for orexin receptor type 2 was calculated as relative percentage of luminescence for the luminescence (100%) of Orexin A (100 μM).

Row | Compound | Agonist Activity (%)
1 | CC(C)N1CCN(c2cccc(Cl)c2NC(=O)N2CCC(C)(c3noc([C@@H]4C[C@@H]4C)n3)CC2)CC1 [Example 118, N-{2-chloro-6-[4-(propan-2-yl)piperazin-1-yl]phenyl}-4-methyl-4-{5-[(1R,2S)-2-methylcyclopropyl]-1,2,4-oxadiazol-3-yl}piperidine-1-carboxamide] | 149%
2 | CC(C)N1CCN(c2cccc(Cl)c2NC(=O)N2CCC(C)(c3noc(CC(F)(F)F)n3)CC2)CC1 [Example 119, N-{2-chloro-6-[4-(propan-2-yl)piperazin-1-yl]phenyl}-4-methyl-4-[5-(2,2,2-trifluoroethyl)-1,2,4-oxadiazol-3-yl]piperidine-1-carboxamide] | 154%
3 | Cc1nc(C2(C)CCN(C(=O)Nc3ccccc3N3CCN(C(C)C)CC3)CC2)no1 [Example 120, 4-methyl-4-(5-methyl-1,2,4-oxadiazol-3-yl)-N-{2-[4-(propan-2-yl)piperazin-1-yl]phenyl}piperidine-1-carboxamide] | 125%
4 | Cc1ccc(C2CCN(C(=O)Nc3ccccc3N3CCN(C(C)C)CC3)CC2)cc1 [Example 121] | 130%
5 | CCN1CCN(c2ccccc2NC(=O)N2CCC(c3ccc(C)cc3)CC2)CC1 [Example 122, N-[2-(4-ethylpiperazin-1-yl)phenyl]-4-(4-methylphenyl)piperidine-1-carboxamide] | 122%
6 | Cc1ccc(C2CCN(C(=O)Nc3ccccc3N3CCN(C)CC3)CC2)cc1 [Example 123, 4-(4-methylphenyl)-N-[2-(4-methylpiperazin-1-yl)phenyl]piperidine-1-carboxamide] | 105%
7 | Cc1ccc(C2CCN(C(=O)Nc3ccccc3N3CCN(C4CCOC4)CC3)CC2)cc1 (centres unmarked) [Example 124, 4-(4-methylphenyl)-N-{2-[4-(oxolan-3-yl)piperazin-1-yl]phenyl}piperidine-1-carboxamide] | 27%
8 | COCCN1CCN(c2ccccc2NC(=O)N2CCC(c3ccc(C)cc3)CC2)CC1 [Example 125, N-{2-[4-(2-methoxyethyl)piperazin-1-yl]phenyl}-4-(4-methylphenyl)piperidine-1-carboxamide] | 141%
9 | COCC(C)N1CCN(c2ccccc2NC(=O)N2CCC(c3ccc(C)cc3)CC2)CC1 (centres unmarked) [Example 126, N-{2-[4-(1-methoxypropan-2-yl)piperazin-1-yl]phenyl}-4-(4-methylphenyl)piperidine-1-carboxamide] | 139%
10 | CCOc1cccc(C2CCN(C(C)C)CC2)c1NC(=O)N1CCC(c2ccc(C)cc2)CC1 [Example 127, N-{2-ethoxy-6-[1-(propan-2-yl)piperidin-4-yl]phenyl}-4-(4-methylphenyl)piperidine-1-carboxamide] | 145%
11 | CCOc1cccc(C2CCN(C(C)CC)CC2)c1NC(=O)N1CCC(c2ccc(C)cc2)CC1 (centres unmarked) [Example 128, N-{2-[1-(butan-2-yl)piperidin-4-yl]-6-ethoxyphenyl}-4-(4-methylphenyl)piperidine-1-carboxamide] | 136%
12 | Cc1ccc(C2CCN(C(=O)Nc3c(OC(C)C)cccc3C3CCN(C(C)C)CC3)CC2)cc1 [Example 129, 4-(4-methylphenyl)-N-{2-[(propan-2-yl)oxy]-6-[1-(propan-2-yl)piperidin-4-yl]phenyl}piperidine-1-carboxamide] | 138%
13 | CC(C)N1CC=C(c2cccc(Cl)c2NC(=O)N2CCC(C)(c3noc(C4CC4)n3)CC2)CC1 [Example 130, N-{2-chloro-6-[1-(propan-2-yl)-1,2,3,6-tetrahydropyridin-4-yl]phenyl}-4-(5-cyclopropyl-1,2,4-oxadiazol-3-yl)-4-methylpiperidine-1-carboxamide] | 142%
14 | CC1(c2noc(C3CC3)n2)CCN(C(=O)Nc2c(Cl)cccc2C2=CCN(C3CCC3)CC2)CC1 [Example 131, N-[2-chloro-6-(1-cyclobutyl-1,2,3,6-tetrahydropyridin-4-yl)phenyl]-4-(5-cyclopropyl-1,2,4-oxadiazol-3-yl)-4-methylpiperidine-1-carboxamide] | 150%
15 | Cc1ccc(C2CCN(C(=O)Nc3c(Cl)cccc3C3=CCN(C(C)C)CC3)CC2)cc1 [Example 132, N-{2-chloro-6-[1-(propan-2-yl)-1,2,3,6-tetrahydropyridin-4-yl]phenyl}-4-(4-methylphenyl)piperidine-1-carboxamide] | 171%
16 | Cc1ccc(C2CCN(C(=O)Nc3c(Cl)cccc3C3CCN(C(C)C)CC3)CC2)cc1 [Example 133, N-{2-chloro-6-[1-(propan-2-yl)piperidin-4-yl]phenyl}-4-(4-methylphenyl)piperidine-1-carboxamide] | 156%
17 | Cc1ccc(C2CCN(C(=O)Nc3c(F)cccc3C3=CCN(C(C)CF)CC3)CC2)cc1 (centres unmarked) [Example 134, N-{2-fluoro-6-[1-(1-fluoropropan-2-yl)-1,2,3,6-tetrahydropyridin-4-yl]phenyl}-4-(4-methylphenyl)piperidine-1-carboxamide] | 135%
18 | Cc1ccc(C2CCN(C(=O)Nc3c(F)cccc3C3=CCN(C(C)C(F)F)CC3)CC2)cc1 (centres unmarked) [Example 135, N-{2-[1-(1,1-difluoropropan-2-yl)-1,2,3,6-tetrahydropyridin-4-yl]-6-fluorophenyl}-4-(4-methylphenyl)piperidine-1-carboxamide] | 103%
19 | Cc1ccc(C2CCN(C(=O)Nc3c(F)cccc3C3=CCN(C(CF)CF)CC3)CC2)cc1 [Example 136, N-{2-[1-(1,3-difluoropropan-2-yl)-1,2,3,6-tetrahydropyridin-4-yl]-6-fluorophenyl}-4-(4-methylphenyl)piperidine-1-carboxamide] | 105%
20 | Cc1ccc(C2CCN(C(=O)Nc3c(F)cccc3C3CCN(C(C)CF)CC3)CC2)cc1 (centres unmarked) [Example 137, N-{2-fluoro-6-[1-(1-fluoropropan-2-yl)piperidin-4-yl]phenyl}-4-(4-methylphenyl)piperidine-1-carboxamide] | 126%
21 | Cc1ccc(C2CCN(C(=O)Nc3c(F)cccc3C3CCN(C(C)C(F)F)CC3)CC2)cc1 (centres unmarked) [Example 138, N-{2-[1-(1,1-difluoropropan-2-yl)piperidin-4-yl]-6-fluorophenyl}-4-(4-methylphenyl)piperidine-1-carboxamide] | 44%
22 | Cc1ccc(C2CCN(C(=O)Nc3c(F)cccc3C3=CCN(C(C)C)C3)CC2)cc1 [Example 139, N-{2-fluoro-6-[1-(propan-2-yl)-2,5-dihydro-1H-pyrrol-3-yl]phenyl}-4-(4-methylphenyl)piperidine-1-carboxamide] | 121%
23 | Cc1ccc(C2CCN(C(=O)Nc3c(F)cccc3C3=CCN(C)C3)CC2)cc1 [Example 140, N-[2-fluoro-6-(1-methyl-2,5-dihydro-1H-pyrrol-3-yl)phenyl]-4-(4-methylphenyl)piperidine-1-carboxamide] | 75%
